# Test results taken from article PMC6629894, “Ruthenium Complexes Containing Heterocyclic Thioamidates Trigger Caspase-Mediated Apoptosis Through MAPK Signaling in Human Hepatocellular Carcinoma Cells” (Frontiers in Oncology, 2019).
# Marks after values point to notes of the source that are not given here.
# Experiments:
# [1] = test system: WT SV40 MEF (wild-type immortalized mouse embryonic fibroblast); experiment: Alamar blue cytotoxicity assay, 72 h; format: cell-based; conditions: Mus musculus, Fibroblast, read-out: IC50 and 95% CI
# [2] = test system: HepG2 cells; experiment: Trypan blue exclusion assay; format: cell-based, human; conditions: 2 μM
# Procedure: For all subsequent in vitro experiments, 2 mL of a suspension of HepG2 cells were seeded (7 × 10^4 cells/mL) and incubated in a 24-well plate overnight to allow the cells to adhere to the plate surface.
# In the trypan blue exclusion assay, the number of viable cells and non-viable cells (stained with trypan blue) were counted. Briefly, 90 μL was removed from the cell suspension, and 10 μL of trypan blue (0.4%) was added. Cell counting was performed using a light microscope with a hemocytometer filled with an aliquot of the homogenized cell suspension.
# [3] = test system: B16-F10 (mouse melanoma); experiment: Alamar blue cytotoxicity assay, 72 h; format: cell-based
# Description: (§1) The cell lines HepG2 (human hepatocellular carcinoma), HL-60 (human promyelocytic leukemia), K-562 (human chronic myelogenous leukemia), B16-F10 (mouse melanoma), MCF-7 (human breast carcinoma), HCT116 (human colon carcinoma), HSC-3 (human oral squamous cell carcinoma), SCC-4 (human oral squamous cell carcinoma), MRC-5 (human lung fibroblast), WT SV40 MEF (wild-type immortalized mouse embryonic fibroblast), and BAD KO SV40 MEF (BAD gene knockout immortalized mouse embryonic fibroblasts) were obtained from the American Type Culture Collection (ATCC, Manassas, VA, USA). Cells were cultured in RPMI 1640 medium (Gibco-BRL, Gaithersburg, MD, USA) with 10% fetal bovine serum (Life, Carlsbad, CA, USA), 2 mM L-glutamine (Vetec Química Fina, Duque de Caxias, RJ, Brazil) and 50 μg/mL gentamycin (Life). For all experiments, adherent cells were collected by treatment with 0.25% trypsin-EDTA solution (Gibco-BRL). All cell lines were cultured in flasks at 37°C in 5% CO2 and were subcultured every 3–4 days to maintain exponential growth. All cell lines were tested for mycoplasma using a mycoplasma staining kit (Sigma-Aldrich Co.) to validate that the cells that were used were free from contamination.
# (§2) Cytotoxicity was measured colorimetrically using an Alamar blue method that was performed as previously described ([20], [21]). Cells were seeded in 96-well plates for all experiments (7 × 10^4 cells/mL for adherent cells or 3 × 10^5 cells/mL for suspension cells in 100 μL of medium) and incubated overnight at 37°C with 5% CO2 to allow for adherence. The complexes were dissolved in 0.5% dimethyl sulfoxide (DMSO, Vetec Química Fina) at eight different concentrations from 0.19 to 25 μg/mL and were added to each well and incubated for 72 h. The negative control was treated with the vehicle (0.5% DMSO) that was used to solubilize and dilute the complexes. […] Four (for cell lines) or 24 h (for PBMCs) before the end of incubation, 20 μL of a stock solution (0.312 mg/mL) of resazurin (Sigma-Aldrich Co.) was added to each well. Absorbance was measured at 570 and 600 nm using a SpectraMax 190 Microplate Reader (Molecular Devices, Sunnyvale, CA, USA).
# [4] = test system: HepG2 (human hepatocellular carcinoma); experiment: Alamar blue cytotoxicity assay, 72 h; format: cell-based
# Description: as §1, §2
# [5] = test system: K-562 (human chronic myelogenous leukemia); experiment: Alamar blue cytotoxicity assay, 72 h; format: cell-based
# Description: as §1, §2
# [6] = test system: calf thymus DNA (ctDNA); experiment: DNA interaction assay (ethidium bromide displacement); format: binding; conditions: 20 μM
# Procedure: DNA interaction was measured in a cell-free system as previously described ([22]). In this assay, the ability of the complexes to translocate ethidium bromide, a DNA intercalator, from calf thymus DNA (ctDNA, Sigma-Aldrich Co.) was examined. […] […] After a 15 min incubation at room temperature, fluorescence was measured using the excitation and emission wavelengths of 320 and 600 nm, respectively, using a Spectramax Microplate Reader (Molecular Devices).
# [7] = test system: BAD KO SV40 MEF (BAD gene knockout immortalized mouse embryonic fibroblasts); experiment: Alamar blue cytotoxicity assay, 72 h; format: cell-based; conditions: Mus musculus, Fibroblast, read-out: IC50 and 95% CI
# [8] = test system: multicellular spheroids formed from HepG2 cells; experiment: 3D multicellular spheroid culture, Alamar blue, 72 h; format: cell-based, human; conditions: Homo sapiens, read-out: IC50 and 95% CI, 3D HepG2 spheroids
# Procedure: HepG2 cells were cultivated as 3D multicellular spheroids in a 96-well plate with a cell-repellent surface. Briefly, 100 μL of a suspension of cells (5 × 10^5 cells/mL) was seeded into a 96-well plate with a cell-repellent surface (Greiner Bio-One, Kremsmünster, Austria) and cultured in RPMI 1640 medium with 10% fetal bovine serum, 2 mM glutamine plus 3% Matrigel (BD Biosciences, San Jose, CA, EUA) and 50 μg/mL gentamycin at 37°C with 5% CO2. Spheroids with stable structures formed after 3 days. Then, the complexes were dissolved in 0.5% DMSO at eight different concentrations from 0.19 to 25 μg/mL, were added to each well and incubated for 72 h. […] At the end of the experiment, morphological changes were examined by light microscopy (Olympus BX41, Tokyo, Japan) using Image-Pro software (Media Cybernetics, Inc. Silver Spring, USA), and cytotoxicity was quantified with the Alamar blue method as described above.
# [9] = peripheral blood, 0.3 mg/kg/day, 21 days
structure (smiles),measurement,setting,value
"COc1cccc2c1C(=O)c1c(O)c3c(c(O)c1C2=O)C[C@@](O)(C(=O)CO)C[C@@H]3O[C@H]1C[C@H](N)[C@H](O)[C@H](C)O1 [Doxorubicin, reference compound]",Initial body weight,0.3 mg/kg/day,22.3 ± 0.4 g
same,Final body weight,"0.3 mg/kg/day i.p., 21 days",19.5 ± 0.6 g
same,Heart relative weight,"0.3 mg/kg/day i.p., 21 days",0.5 ± 0.02 g/100 g body weight
same,Kidney relative weight,"0.3 mg/kg/day i.p., 21 days",1.5 ± 0.04 g/100 g body weight
same,Liver relative weight,"0.3 mg/kg/day i.p., 21 days",4.8 ± 0.1 g/100 g body weight
same,Lung relative weight,"0.3 mg/kg/day i.p., 21 days",0.9 ± 0.06 g/100 g body weight
same,Differential leukocytes: Eosinophils,[9],1.0%
same,Differential leukocytes: Lymphocytes,[9],49.3%
same,Differential leukocytes: Monocytes,[9],1.0%
same,Differential leukocytes: Neutrophils,[9],48.8%
same,Erythrocytes,[9],8.9 ± 0.7 10^6cells/μL
same,Total leukocytes,[9],1.5 ± 0.2* 10^3cells/μL
same,IC50,[1],40 nM
same,reduction of the number of viable cells vs negative control,[2]; 24 h,53.1%
same,reduction of the number of viable cells vs negative control,[2]; 48 h,74.7%
same,Selectivity index (SI = IC50 [noncancerous cells]/IC50 [cancer cells]),[3]; MRC-5 vs B16-F10,2.0
same,IC50,"[3]; Mus musculus, B16-F10, 72 h, read-out: IC50 and 95% CI",200 nM
same,Selectivity index (SI = IC50 [noncancerous cells]/IC50 [cancer cells]),[3]; PBMCs vs B16-F10,12.5
same,Selectivity index (SI = IC50 [noncancerous cells]/IC50 [cancer cells]),[4]; MRC-5 vs HepG2,1.3
same,Selectivity index (SI = IC50 [noncancerous cells]/IC50 [cancer cells]),[4]; PBMCs vs HepG2,8.3
same,Selectivity index (SI = IC50 [noncancerous cells]/IC50 [cancer cells]),[5]; MRC-5 vs K-562,0.4
same,Selectivity index (SI = IC50 [noncancerous cells]/IC50 [cancer cells]),[5]; PBMCs vs K-562,2.8
same,reduction of the fluorescence intensity (ethidium bromide-ctDNA) vs negative control,[6],89.0%
same,IC50,[7],400 nM
same,IC50,[8],10300 nM
